31 compounds from patent US20230339866A1, “Quinazoline compounds and the use thereof in the treatment of cancer” (TROBIO THERAPEUTICS PTY LTD, priority 2020, published 2023) can be followed below.

Bounds are passed on as bounds.

Holding throughout (assay type): cell-based
Experiment [1] concerns SK-N-SH neuroblastoma cells. Put plainly: Anti-proliferative activity (MTS assay) against SK-N-SH neuroblastoma cells. Conditions: Homo sapiens, SK-N-SH, 72 h. As for the experimental part: The ability of compounds of the disclosure to inhibit the proliferation of SK-N-SH neuroblastoma cells was also assessed. […] Cell viability was normalised to control (vehicle alone) and dose response curves and IC50 values (Table 4) were determined using Graph Pad Prism 6.
(In general: Tetrazolium dyes change colour on reduction, which living cells bring about.)

The next experiment deals with A2780 (ovarian). Put plainly: Anti-proliferative activity (Cell-Titre luminescence) against A2780 ovarian cancer cells. Conditions: 72 h exposure, Cell-Titre luminescent reagent. Put shortly:
(§1)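 Cells grown 24 h at 37 °C, 5% CO2, then exposed 72 h to compound at 30, 10, 3, 1, 0.3 and 0.1 μM. Viability by Cell-Titre luminescence (30 min), normalised to vehicle; EC50 from variable-slope sigmoidal nonlinear regression.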

Another experiment deals with A549 (NSCLC). Put plainly: Anti-proliferative activity (Cell-Titre luminescence) against A549 non-small cell lung cancer cells. Particulars: 72 h exposure, Cell-Titre luminescent reagent. The method in brief:
as §1

For the compound `CC(C)C(CNc1nc(-c2cc[nH]c2)nc2ccccc12)N1CCN(C)CC1` (centres unmarked) [Compound 5, N-(3-methyl-2-(4-methylpiperazin-1-yl)butyl)-2-(1H-pyrrol-3-yl)quinazolin-4-amine], the IC50 in experiment [1] stood at 1.87 µM; in the experiment with A2780 (ovarian) (Homo sapiens, A2780, 72 h), 0.901 µM; in the experiment on A549 (NSCLC) (Homo sapiens, A549, 72 h), 2.74 µM.

With `OCCNc1nc(NCc2ccccc2)nc2ccccc12` [Compound 31, 2-((2-(benzylamino)quinazolin-4-yl)amino)ethan-1-ol], the IC50 in experiment [1] amounted to 14.3 µM; in the experiment with A2780 (ovarian) (Homo sapiens, A2780, 72 h), 1.21 µM; in the experiment with A549 (NSCLC) (Homo sapiens, A549, 72 h), 3.61 µM.

Regarding `CN1CCN(CCNc2nc(Nc3cccc(C(F)(F)F)c3)nc3ccccc23)CC1` [Compound 41, N^4-(2-(4-methylpiperazin-1-yl)ethyl)-N^2-(3-(trifluoromethyl)phenyl)quinazoline-2,4-diamine], the half-maximal inhibitory concentration (IC50) came to 2.22 µM in experiment [1]; 0.855 µM in the experiment with A2780 (ovarian) (Homo sapiens, A2780, 72 h); 3.06 µM with A549 (NSCLC) (Homo sapiens, A549, 72 h).

In the case of `CN1CCN(CCNc2nc(NCCc3cccc(C(F)(F)F)c3)nc3ccccc23)CC1` [Compound 51, N^4-(2-(4-methylpiperazin-1-yl)ethyl)-N^2-(3-(trifluoromethyl)phenethyl)quinazoline-2,4-diamine], the IC50 in experiment [1] worked out at 1.4 µM; with A2780 (ovarian) (Homo sapiens, A2780, 72 h), 1.39 µM; in the experiment with A549 (NSCLC) (Homo sapiens, A549, 72 h) it was 3.07 µM.

Take `COc1ccc(CCNc2nc(NCCN3CCN(C)CC3)c3ccccc3n2)cc1` [Compound 54, N^2-(4-methoxyphenethyl)-N^4-(2-(4-methylpiperazin-1-yl)ethyl)quinazoline-2,4-diamine]: the IC50 in experiment [1] was 1.15 µM; with A2780 (ovarian) (Homo sapiens, A2780, 72 h), 3.8 µM; in the experiment on A549 (NSCLC) (Homo sapiens, A549, 72 h), 4.65 µM.

On to `CN1CCN(CCNc2nc(Nc3cccc(F)c3)nc3ccccc23)CC1` [Compound 56, N^2-(3-fluorophenyl)-N^4-(2-(4-methylpiperazin-1-yl)ethyl)quinazoline-2,4-diamine], for which the IC50 in experiment [1] was determined as 3.68 µM; with A2780 (ovarian) (Homo sapiens, A2780, 72 h) it was 1.01 µM; in the experiment with A549 (NSCLC) (Homo sapiens, A549, 72 h), 8.5 µM.

For `CN(C)CCNc1nc(Nc2cccc(C(F)(F)F)c2)nc2ccccc12` [Compound 60, N^4-(2-(dimethylamino)ethyl)-N^2-(3-(trifluoromethyl)phenyl)quinazoline-2,4-diamine], the IC50 turned out to be 2.61 µM in experiment [1]; 2.21 µM in the experiment with A2780 (ovarian) (Homo sapiens, A2780, 72 h); 2.74 µM with A549 (NSCLC) (Homo sapiens, A549, 72 h).

With `CN(C)CCCNc1nc(Nc2cccc(C(F)(F)F)c2)nc2ccccc12` [Compound 69, N^4-(3-(dimethylamino)propyl)-N^2-(3-(trifluoromethyl)phenyl)quinazoline-2,4-diamine], the IC50 is 2.39 µM in experiment [1]; 0.797 µM in the experiment on A2780 (ovarian) (Homo sapiens, A2780, 72 h); 2.74 µM in the experiment with A549 (NSCLC) (Homo sapiens, A549, 72 h).

With `CCc1ccc(Nc2nc(NCCCN(C)C)c3ccccc3n2)cc1` [Compound 71, N^4-(3-(dimethylamino)propyl)-N^2-(4-ethylphenyl)quinazoline-2,4-diamine], the half-maximal inhibitory concentration (IC50) in experiment [1] amounted to 2.07 µM; in the experiment on A2780 (ovarian) (Homo sapiens, A2780, 72 h), 2.88 µM; in the experiment on A549 (NSCLC) (Homo sapiens, A549, 72 h) it was 7.14 µM.

Consider `CN(C)CCCNc1nc(NCCc2cccc(C(F)(F)F)c2)nc2ccccc12` [Compound 74, N^4-(3-(dimethylamino)propyl)-N^2-(3-(trifluoromethyl)phenethyl)quinazoline-2,4-diamine], for which the half-inhibitory concentration (IC50) in experiment [1] is 1.24 µM; in the experiment on A2780 (ovarian) (Homo sapiens, A2780, 72 h), 1.16 µM; in the experiment with A549 (NSCLC) (Homo sapiens, A549, 72 h) it was 1.7 µM.

For `COc1ccc(CCNc2nc(NCCCN(C)C)c3ccccc3n2)cc1` [Compound 75, N^4-(3-(dimethylamino)propyl)-N^2-(4-methoxyphenethyl)quinazoline-2,4-diamine], the IC50 in experiment [1] was 1.47 µM; in the experiment with A2780 (ovarian) (Homo sapiens, A2780, 72 h) it was 0.467 µM; in the experiment with A549 (NSCLC) (Homo sapiens, A549, 72 h), 1.49 µM.

Turning to `CN(C)CCCNc1nc(NCCc2cccc(F)c2)nc2ccccc12` [Compound 77, N^4-(3-(dimethylamino)propyl)-N^2-(3-fluorophenethyl)quinazoline-2,4-diamine], the half-maximal inhibitory concentration (IC50) was 2.36 µM in experiment [1]; 3.49 µM in the experiment on A2780 (ovarian) (Homo sapiens, A2780, 72 h); 3.04 µM in the experiment with A549 (NSCLC) (Homo sapiens, A549, 72 h).

Consider `CN(C)CCCNc1nc(NCCc2ccc(F)cc2)nc2ccccc12` [Compound 78, N^4-(3-(dimethylamino)propyl)-N^2-(4-fluorophenethyl)quinazoline-2,4-diamine], for which the IC50 came out at 1.86 µM in experiment [1]; 2.95 µM in the experiment with A2780 (ovarian) (Homo sapiens, A2780, 72 h); 2.33 µM in the experiment on A549 (NSCLC) (Homo sapiens, A549, 72 h).

For `COc1ccc(Nc2nc(NCCc3c[nH]cn3)c3ccccc3n2)cc1` [Compound 80, N^4-(2-(1H-imidazol-4-yl)ethyl)-N^2-(4-methoxyphenyl)quinazoline-2,4-diamine], the half-maximal inhibitory concentration (IC50) came out at 2.87 µM in experiment [1]; 3.33 µM in the experiment with A2780 (ovarian) (Homo sapiens, A2780, 72 h); 4 µM in the experiment with A549 (NSCLC) (Homo sapiens, A549, 72 h).

For the compound `CCc1ccc(Nc2nc(NCCc3c[nH]cn3)c3ccccc3n2)cc1` [Compound 81, N^4-(2-(1H-imidazol-4-yl)ethyl)-N^2-(4-ethylphenyl)quinazoline-2,4-diamine], the half-maximal inhibitory concentration (IC50) in experiment [1] was found to be 3.82 µM; in the experiment on A2780 (ovarian) (Homo sapiens, A2780, 72 h), 1.2 µM; in the experiment on A549 (NSCLC) (Homo sapiens, A549, 72 h) it was 3.1 µM.

For `COc1ccc(CCNc2nc(NCCN3CCN(C)CC3)c3ccccc3n2)cc1OC` [Compound 137, N^2-(3,4-dimethoxyphenethyl)-N^4-(2-(4-methylpiperazin-1-yl)ethyl)quinazoline-2,4-diamine], the IC50 stood at 8.71 µM with A2780 (ovarian) (Homo sapiens, A2780, 72 h) and 13.4 µM in the experiment with A549 (NSCLC) (Homo sapiens, A549, 72 h).

Take `CN1CCN(CCNc2nc(NCCc3cc(F)cc(F)c3)nc3ccccc23)CC1` [Compound 138, N^2-(3,5-difluorophenethyl)-N^4-(2-(4-methylpiperazin-1-yl)ethyl)quinazoline-2,4-diamine]: the IC50 with A2780 (ovarian) (Homo sapiens, A2780, 72 h) came to 1.1 µM; in the experiment with A549 (NSCLC) (Homo sapiens, A549, 72 h), 6.07 µM.

In the case of `CN1CCN(CCNc2nc(NCCc3cc(Cl)cc(Cl)c3)nc3ccccc23)CC1` [Compound 139, N^2-(3,5-dichlorophenethyl)-N^4-(2-(4-methylpiperazin-1-yl)ethyl)quinazoline-2,4-diamine], the IC50 in the experiment on A2780 (ovarian) (Homo sapiens, A2780, 72 h) turned out to be 1.1 µM; in the experiment on A549 (NSCLC) (Homo sapiens, A549, 72 h), 3.44 µM.

As for `COc1cc(CCNc2nc(NCCN3CCN(C)CC3)c3ccccc3n2)cc(OC)c1` [Compound 140, N^2-(3,5-dimethoxyphenethyl)-N^4-(2-(4-methylpiperazin-1-yl)ethyl)quinazoline-2,4-diamine], the IC50 with A2780 (ovarian) (Homo sapiens, A2780, 72 h) was found to be 7.26 µM; with A549 (NSCLC) (Homo sapiens, A549, 72 h), 13.2 µM.

On to `CN1CCN(CCNc2nc(NCCc3cc(F)c(F)c(F)c3)nc3ccccc23)CC1` [Compound 141, N^4-(2-(4-methylpiperazin-1-yl)ethyl)-N^2-(3,4,5-trifluorophenethyl)quinazoline-2,4-diamine], for which the IC50 was 1.22 µM in the experiment with A2780 (ovarian) (Homo sapiens, A2780, 72 h) and 3.3 µM in the experiment on A549 (NSCLC) (Homo sapiens, A549, 72 h).

As to `COc1cc(CCNc2nc(NCCN3CCN(C)CC3)c3ccccc3n2)cc(OC)c1OC` [Compound 142, N^4-(2-(4-methylpiperazin-1-yl)ethyl)-N^2-(3,4,5-trimethoxyphenethyl)quinazoline-2,4-diamine], the half-maximal inhibitory concentration (IC50) in the experiment with A2780 (ovarian) (Homo sapiens, A2780, 72 h) was greater than 30 µM; in the experiment with A549 (NSCLC) (Homo sapiens, A549, 72 h) it was greater than 30 µM.

As to `CN1CCN(CCNc2nc(NCCc3ccc4c(c3)OCO4)nc3ccccc23)CC1` [Compound 143, N^2-(2-(benzo[d][1,3]dioxol-5-yl)ethyl)-N^4-(2-(4-methylpiperazin-1-yl)ethyl)quinazoline-2,4-diamine], the IC50 is 3.01 µM in the experiment on A2780 (ovarian) (Homo sapiens, A2780, 72 h) and 9.48 µM with A549 (NSCLC) (Homo sapiens, A549, 72 h).

As to `CN1CCN(CCNc2nc(NCCc3ccccn3)nc3ccccc23)CC1` [Compound 144, N^4-(2-(4-methylpiperazin-1-yl)ethyl)-N^2-(2-(pyridin-2-yl)ethyl)quinazoline-2,4-diamine], the IC50 with A2780 (ovarian) (Homo sapiens, A2780, 72 h) came to 9.37 µM; in the experiment on A549 (NSCLC) (Homo sapiens, A549, 72 h), 27.8 µM.

On to `CN1CCN(CCNc2nc(NCCc3cccnc3)nc3ccccc23)CC1` [Compound 145, N^4-(2-(4-methylpiperazin-1-yl)ethyl)-N^2-(2-(pyridin-3-yl)ethyl)quinazoline-2,4-diamine], for which the 50% inhibitory concentration (IC50) in the experiment on A2780 (ovarian) (Homo sapiens, A2780, 72 h) was 10.9 µM; in the experiment on A549 (NSCLC) (Homo sapiens, A549, 72 h), greater than 30 µM.

Regarding `CN1CCN(CCNc2nc(NCCc3ccncc3)nc3ccccc23)CC1` [Compound 146, N^4-(2-(4-methylpiperazin-1-yl)ethyl)-N^2-(2-(pyridin-4-yl)ethyl)quinazoline-2,4-diamine], the IC50 in the experiment with A2780 (ovarian) (Homo sapiens, A2780, 72 h) turned out to be 14.1 µM; in the experiment with A549 (NSCLC) (Homo sapiens, A549, 72 h), 15.7 µM.

As to `CN1CCN(CCNc2nc(NCCc3cccs3)nc3ccccc23)CC1` [Compound 147, N^4-(2-(4-methylpiperazin-1-yl)ethyl)-N^2-(2-(thiophen-2-yl)ethyl)quinazoline-2,4-diamine], the IC50 is 2.81 µM with A2780 (ovarian) (Homo sapiens, A2780, 72 h) and 3.18 µM in the experiment on A549 (NSCLC) (Homo sapiens, A549, 72 h).

Take `CN1CCN(CCNc2nc(NCCc3ccco3)nc3ccccc23)CC1` [Compound 148, N^2-(2-(furan-2-yl)ethyl)-N^4-(2-(4-methylpiperazin-1-yl)ethyl)quinazoline-2,4-diamine]: the IC50 in the experiment on A2780 (ovarian) (Homo sapiens, A2780, 72 h) was 7.77 µM; in the experiment on A549 (NSCLC) (Homo sapiens, A549, 72 h), greater than 30 µM.

Turning to `OCCNc1nc(Nc2ccccc2O)nc2ccccc12` [Compound 149], the IC50 in the experiment on A2780 (ovarian) (Homo sapiens, A2780, 72 h) turned out to be 5.04 µM; in the experiment with A549 (NSCLC) (Homo sapiens, A549, 72 h), 3.51 µM.

With `CN1CCN(CCNc2nc(OCCc3cccc(C(F)(F)F)c3)nc3ccccc23)CC1` [Compound 150, N-(2-(4-methylpiperazin-1-yl)ethyl)-2-(3-(trifluoromethyl)phenethoxy)quinazolin-4-amine], the IC50 with A2780 (ovarian) (Homo sapiens, A2780, 72 h) is 12.2 µM; with A549 (NSCLC) (Homo sapiens, A549, 72 h), 16.5 µM.

On to `CN1CCN(CCNc2nc(SCCc3cccc(C(F)(F)F)c3)nc3ccccc23)CC1` [Compound 151, N-(2-(4-methylpiperazin-1-yl)ethyl)-2-((3-(trifluoromethyl)phenethyl)thio)quinazolin-4-amine], for which the IC50 in the experiment on A2780 (ovarian) (Homo sapiens, A2780, 72 h) is 5.81 µM; in the experiment with A549 (NSCLC) (Homo sapiens, A549, 72 h) it was 7.41 µM.

“N^2-(3-methoxyphenyl)-N^4-(2-(4-methylpiperazin-1-yl)ethyl)quinazoline-2,4-diamine [Compound 43]”: the IC50 came to 1.03 µM in the experiment on A2780 (ovarian) and 6.09 µM with A549 (NSCLC).

One may read the IC50 as the concentration at which inhibition is half-maximal. A higher IC50 goes with weaker potency.
